Source: patent publication EP0412158A1, “ONCOSTATIC DRUG” (priority 1987, dated 1988)
Read-outs that look alike come from different tables or passages of the source. Marks after values point to notes of the source that are not given here.

Legend:
[1] = test system: human lung cancer (OAT); type: in vivo, female nude mice; conditions: 200 mg/kg ip ×10; for T/C: tumor volume
Protocol: A patch of human lung cancer [Cancer cells recommended by National Cancer Institute (NCL) of the U.S.A.] (OAT) measuring approximately 2 x 2 mm in area was subcutaneously transplanted to each of female nude mice. An aqueous solution containing the aforementioned heteropoly acid salt (Compound M) in a concentration of 10 mg/ml was administered by intraperitoneal injection (ip) to the mice at a dose of 200 mg/kg once per day for 10 consecutive days following the 12th day of transplantation. For 15 days following the stop of the administration, the volumes of tumor in the mice were measured to evaluate the effect of compound. At ip (x 10), significant suppression of hyperplasia began to appear about the 4th day. Even after completion of the administration 25th day of the transplantation, strong suppression of hyperplasia of cancer of about 50% was maintained. Generally by the NCI standard, a ratio of suppression exceeding 50% is rated as effective. Thus, the compound was confirmed to be effective. For comparison, mice to which no aqueous solution was administered were similarly tested.

[2] = test system: human breast cancer (MX-1); type: in vivo, female nude mice; conditions: for T/C: tumor volume
Protocol: A patch of human breast cancer [cancer cells recommended by National Cancer Institute (NCI) of U.S.A.] (MX-1) measuring approximately 2 x 2 mm in area was transplanted to female nude mice 5 weeks old. For 10 days following the 17th day of the transplantation, an aqueous solution containing 1% by weight of the aforementioned isopropylammonium polymolybdate (Compound A) was administered continuously at a dose of 100 mg/kg or 200 mg/kg once per day by intraperitoneal injection (ip). After the stop of the administration, the volume of tumor was measured daily for 15 or 20 days to evaluate the effect of the compound. With either of the dose of 100 mg/kg and the dose of 200 mg/kg, significant suppression of hyperplasia began to appear around the 6th day of administration of ip (x 10). Even after the stop of the administration (25th or 30th day), a distinct suppression of cancerous hyperplasia of about 70% was retained. Generally, by the NCI standard, a ratio of suppression exceeding 50% is rated as effective. […] For comparison, similar mice to which the human cancer was transplanted and the aqueous solution was not administered were tested by following the procedure described above.

[3] = test system: methyl cholanthrene A; test: Methyl cholanthrene A tumor, evaluation by extension of period of survival (Examples 7 to 11); type: in vivo, female BALB/C mice; conditions: for Change in body weight: ip×9, D1~D9
Protocol: The aforementioned compounds, A to D, were severally dissolved in distilled water to obtain aqueous solutions containing the compounds in a fixed concentration of 10 mg/ml. To the female BALB/C mice (five weeks old) to which methyl cholanthrene A had been transplanted in a ratio of 1.0 x 10^5 cells per mouse, […] to determine the mices' periods of survival. For comparison, mice to which no antineoplastic drug was administered and mice to which aminonitroso urea was administered were similarly tested.

## Nas [IMo6O24] • 34H2O [Compound M]
[1]; after completion of the administration, 25th day
  suppression of hyperplasia of cancer: about 50%
[1]; day 1
  Volume of tumor, Average value±SE: 457.6±59.3 mm3
[1]; day 2
  Volume of tumor, Average value±SE: 501.7±32.9 mm3
  T/C: 65.2* %
[1]; day 3
  Volume of tumor, Average value±SE: 617.0±165.7 mm3
  T/C: 58.3%
[1]; day 4
  Volume of tumor, Average value±SE: 610.0±118.1 mm3
  T/C: 40.9** %
[1]; day 5
  Volume of tumor, Average value±SE: 711.2±109.2 mm3
  T/C: 40.8** %
[1]; day 6
  Volume of tumor, Average value±SE: 1003.6±188.6 mm3
  T/C: 39.9** %
[1]; day 7
  Volume of tumor, Average value±SE: 1033.6±121.5 mm3
  T/C: 26.0** %
[1]; day 8
  Volume of tumor, Average value±SE: 1257.8±166.2 mm3
  T/C: 27.7** %
[1]; day 12
  Volume of tumor, Average value±SE: 2366.6±364.0 mm3
  T/C: 41.6** %
[1]; day 15
  Volume of tumor, Average value±SE: 4493.2±562.2 mm3
  T/C: 48.0** %
[1]; day 19
  Volume of tumor, Average value±SE: 5735.0±1038.1 mm3
  T/C: 43.3** %
[1]; day 22
  Volume of tumor, Average value±SE: 8493.2±1352.2 mm3
  T/C: 54.8** %
[1]; day 25
  Volume of tumor, Average value±SE: 9672.6±1638.0 mm3
  T/C: 53.2** %

## [NH3C3H7(iso)]s (Mo7O24] • 3H2O [Compound A]
[2]; 100 mg/kg and 200 mg/kg ip ×10, after the stop of the administration (25th or 30th day)
  suppression of cancerous hyperplasia: about 70%
[2]; 100 mg/kg ip ×10, 0 day
  Volume of tumor: 278.3±22.0 mm^3
[2]; 100 mg/kg ip ×10, 1 day
  Volume of tumor: 283.3±50.8 mm^3
  T/C: 67.3%
[2]; 100 mg/kg ip ×10, 2 day
  Volume of tumor: 302.3±58.6 mm^3
  T/C: 58.6%
[2]; 100 mg/kg ip ×10, 3 day
  Volume of tumor: 324.7±123.5 mm^3
  T/C: 60.5%
[2]; 100 mg/kg ip ×10, 4 day
  Volume of tumor: 366.3±121.7 mm^3
  T/C: 60.7%
[2]; 100 mg/kg ip ×10, 5 day
  Volume of tumor: 413.7±168.8 mm^3
  T/C: 57.8%
[2]; 100 mg/kg ip ×10, 6 day
  Volume of tumor: 366.0±121.3 mm^3
  T/C: 44.2** %
[2]; 100 mg/kg ip ×10, 7 day
  Volume of tumor: 302.7±173.5 mm^3
  T/C: 33.3** %
[2]; 100 mg/kg ip ×10, 9 day
  Volume of tumor: 397.3±226.9 mm^3
  T/C: 36.9* %
[2]; 100 mg/kg ip ×10, 10 day
  Volume of tumor: 406.7±202.6 mm^3
  T/C: 29.7*** %
[2]; 100 mg/kg ip ×10, 15 day
  Volume of tumor: 734.0±524.0 mm^3
  T/C: 33.3* %
[2]; 100 mg/kg ip ×10, 19 day
  Volume of tumor: 994.0±613.0 mm^3
  T/C: 37.4* %
[2]; 100 mg/kg ip ×10, 21 day
  Volume of tumor: 1039.0±646.0 mm^3
  T/C: 30.0* %
[2]; 100 mg/kg ip ×10, 25 day
  Volume of tumor: 1301.0±912.3 mm^3
  T/C: 32.6* %
[2]; 200 mg/kg ip ×10, 1 day
  Volume of tumor: 371.8±10.8 mm^3
[2]; 200 mg/kg ip ×10, 2 day
  Volume of tumor: 439.8±56.9 mm^3
[2]; 200 mg/kg ip ×10, 4 day
  Volume of tumor: 518.8±54.7 mm^3
  T/C: 62.1* %
[2]; 200 mg/kg ip ×10, 5 day
  Volume of tumor: 610.5±15.2 mm^3
  T/C: 55.9* %
[2]; 200 mg/kg ip ×10, 6 day
  Volume of tumor: 656.8±25.7 mm^3
  T/C: 62.9**** %
[2]; 200 mg/kg ip ×10, 7 day
  Volume of tumor: 759.3±84.3 mm^3
  T/C: 54.5** %
[2]; 200 mg/kg ip ×10, 8 day
  Volume of tumor: 852.0±126.7 mm^3
  T/C: 58.1* %
[2]; 200 mg/kg ip ×10, 9 day
  Volume of tumor: 695.7±29.6 mm^3
  T/C: 42.4*** %
[2]; 200 mg/kg ip ×10, 10 day
  Volume of tumor: 759.7±21.1 mm^3
  T/C: 41.9** %
[2]; 200 mg/kg ip ×10, 11 day
  Volume of tumor: 816.7±16.7 mm^3
  T/C: 39.3** %
[2]; 200 mg/kg ip ×10, 13 day
  Volume of tumor: 1070.0±41.0 mm^3
  T/C: 39.9*** %
[2]; 200 mg/kg ip ×10, 16 day
  Volume of tumor: 1110.0±21.0 mm^3
  T/C: 34.5*** %
[2]; 200 mg/kg ip ×10, 18 day
  Volume of tumor: 1446.0±75.0 mm^3
  T/C: 33.9*** %
[2]; 200 mg/kg ip ×10, 19 day
  Volume of tumor: 1405.0±159.8 mm^3
  T/C: 29.9*** %
[2]; 200 mg/kg ip ×10, 22 day
  Volume of tumor: 1583.3±145.2 mm^3
  T/C: 30.9*** %
[2]; 200 mg/kg ip ×10, 25 day
  Volume of tumor: 1708.0±243.2 mm^3
  T/C: 29.2*** %
[2]; 200 mg/kg ip ×10, 30 day
  Volume of tumor: 2033.7±430.9 mm^3
  T/C: 27.2*** %
[3]; No. 1, 100 mg/kg, ip×9
  Average number of days of survival: 42.3 ± 3.0 days
  Number of toxically killed mice/total number of mice: 0/8
[3]; No. 1, 100 mg/kg
  Change in body weight: +2.50 g
[3]; No. 1, 100 mg/kg, ip×9, days of survival
  T/control: 163.1
[3]; No. 2, 50 mg/kg, ip×9
  Average number of days of survival: 31.8±2.2(8) days
  Number of toxically killed mice/total number of mice: 0/8
[3]; No. 2, 50 mg/kg
  Change in body weight: +1.68 g
[3]; No. 2, 50 mg/kg, ip×9, days of survival
  T/control: 131.8
[3]; period of survival
  T/control: 63.1%
